In patent US11806358B1, “Method of treating trypanosomiasis” (KING FAISAL UNIVERSITY, priority 2023, dated 2023):
In brackets after ≈: the same amount, converted by molar mass.

How the values were obtained:
six trypanosome species = experiment: Anti-trypanosomal assay, statements over all six species; format: cell-based, Trypanosoma; conditions: for antitrypanosomal activity: assayed at 0.25 or 25 μg/ml; for trypanocidal activity (words): at about 25 μg/ml
Description: (§1) Six trypanosome species namely T. b. brucei (Tbb) GuTat3.1, T. b. rhodesiense (Tbr) IL1501, T. b. gambiense (Tbg) IL1922, T. evansi (Tev) Tansui, T. equiperdum (Teq) IVM-t1 and T. congolense (Tc) IL3000, were cultivated using HMI-9 medium and used in the study. […]
(§2) The IC50 of Neohesperidin dihydrochalcone against six trypanosome species was determined using serial dilution in a 96-well plate (Optical bottom plate, ThermoFisher SCIENTIFIC, MA, USA). After three days, […] of CellTiter-Glo Luminescent cell viability reagent (Promega Corporation, WI, USA) was aliquoted into each well and luminosity was measured with a GloMax plate reader (Promega Corporation, WI, USA).

[1] = system: T. congolense (Tc) IL3000; experiment: Anti-trypanosomal assay (CellTiter-Glo), TcIL3000; format: cell-based; conditions: mean ± SD
Description: Six trypanosome species namely T. b. brucei (Tbb) GuTat3.1, T. b. rhodesiense (Tbr) IL1501, T. b. gambiense (Tbg) IL1922, T. evansi (Tev) Tansui, T. equiperdum (Teq) IVM-t1 and T. congolense (Tc) IL3000, were cultivated using HMI-9 medium and used in the study. The trypanocidal activity of hesperidin and neohesperidin dihydrochalcone, shown below, was assessed at 25 μg/ml or […].
as §2

[2] = system: T. b. rhodesiense (Tbr) IL1501; experiment: Anti-trypanosomal assay (CellTiter-Glo), TbrIL1501; format: cell-based; conditions: mean ± SD
Description: as §1, §2

[3] = system: T. b. brucei (Tbb) GuTat3.1; experiment: Anti-trypanosomal assay (CellTiter-Glo), TbbGUTat3.1; format: cell-based; conditions: mean ± SD
Description: as §1, §2

T. evansi (Tev) Tansui = experiment: Anti-trypanosomal assay (CellTiter-Glo), Tev Tansui; format: cell-based; conditions: mean ± SD
Description: as §1, §2

[4] = system: T. b. gambiense (Tbg) IL1922; experiment: Anti-trypanosomal assay (CellTiter-Glo), TbgIL1922; format: cell-based; conditions: mean ± SD
Description: as §1, §2

[5] = system: T. equiperdum (Teq) IVM-t1; experiment: Anti-trypanosomal assay (CellTiter-Glo), Teq IVM-t1; format: cell-based
Description: as §1, §2

Toxoplasma gondii = conditions: compared to other flavonoids and conventional medicines; cited from earlier work
Trypanosoma = conditions: previously tested; cited from earlier work
[6] = Trypanosoma equiperdum, read-out: Inhibition rate

COc1ccc(CCC(=O)c2c(O)cc(O[C@@H]3O[C@H](CO)[C@@H](O)[C@H](O)[C@H]3O[C@@H]3O[C@@H](C)[C@H](O)[C@@H](O)[C@H]3O)cc2O)cc1O [Neohesperidin dihydrochalcone, neohesperidin dihydrochalcone]
antitrypanosomal activity (six trypanosome species): broad-spectrum and strong inhibition of trypanosomal growth
trypanocidal activity (words) (six trypanosome species): substantial trypanocidal activity
trypanocidal activity (words) (six trypanosome species; listed as neohesperidin dihydrochalcone): suppressed all the test strains
inhibition rate, range over the species (six trypanosome species; low concentration of 0.25 μg/ml): 1.09-3.95%
IC50 range over the six species (six trypanosome species; six Trypanosoma species): 8.88 to 22.53 µg/mL
Inhibition rate ([1]; TcIL3000, 0.25 μg/ml): 0%
Inhibition rate ([1]; TcIL3000, 25 μg/ml): 82.07 ± 6.4%
IC50 ([1]; TcIL3000, three days): 22.53 ± 2.3 µg/mL (≈ 36.8 µM)
Inhibition rate ([2]; TbrIL1501, 0.25 μg/ml): 3.95 ± 5.59%
Inhibition rate ([2]; TbrIL1501, 25 μg/ml): 99.63 ± 0.25%
Inhibition rate ([2]; TbrIL1501, 25 μg/ml, listed as neohesperidin dihydrochalcone): more than 99%
IC50 ([2]; TbrIL1501, three days): 9.47 ± 2.73 µg/mL (≈ 15.5 µM)
Inhibition rate ([3]; TbbGUTat3.1, 0.25 μg/ml): 2.89 ± 1.69%
Inhibition rate ([3]; TbbGUTat3.1, 25 μg/ml): 99.65 ± 0.2%
Inhibition rate ([3]; TbbGUTat3.1, 25 μg/ml, listed as neohesperidin dihydrochalcone): more than 99%
IC50 ([3]; TbbGUTat3.1, three days): 11.97 ± 0.026 µg/mL (≈ 19.5 µM)
Inhibition rate (T. evansi (Tev) Tansui; 0.25 μg/ml): 3.59 ± 5.5%
Inhibition rate (T. evansi (Tev) Tansui; 25 μg/ml): 99.18 ± 0.22%
Inhibition rate (T. evansi (Tev) Tansui; 25 μg/ml, listed as neohesperidin dihydrochalcone): more than 99%
IC50 (T. evansi (Tev) Tansui; three days): 12.69 ± 0.98 µg/mL (≈ 20.7 µM)
Inhibition rate ([4]; TbgIL1922, 0.25 μg/ml): 1.09 ± 0.64%
Inhibition rate ([4]; TbgIL1922, 25 μg/ml): 99.63 ± 0.28%
Inhibition rate ([4]; TbgIL1922, 25 μg/ml, listed as neohesperidin dihydrochalcone): more than 99%
IC50 ([4]; TbgIL1922, three days): 8.88 ± 3.84 µg/mL (≈ 14.5 µM)
Inhibition rate ([5]; Teq IVM-t1, 0.25 μg/ml, mean ± SD): 0.59 ± 0.84%
Inhibition rate ([5]; Teq IVM-t1, 25 μg/ml, mean ± SD): 98.8 ± 0.17%
Inhibition rate ([5]; Teq IVM-t1, 25 μg/ml, mean ± SD, listed as neohesperidin dihydrochalcone): more than 99%
IC50 ([5]; Teq IVM-t1, three days, mean ± SD): 11.38 ± 3.93 µg/mL (≈ 18.6 µM)

COc1ccc([C@@H]2CC(=O)c3c(O)cc(O[C@@H]4O[C@H](CO)[C@@H](O)[C@H](O)[C@H]4O[C@@H]4O[C@@H](C)[C@H](O)[C@@H](O)[C@H]4O)cc3O2)cc1O [neohesperidin]
antiprotozoal activity against Toxoplasmosis (Toxoplasma gondii): not as effective as other standard drugs or flavonoids

COc1ccc([C@@H]2CC(=O)c3c(O)cc(O[C@@H]4O[C@H](CO[C@@H]5O[C@@H](C)[C@H](O)[C@@H](O)[C@H]5O)[C@@H](O)[C@H](O)[C@H]4O)cc3O2)cc1O [Hesperidin, hesperidin, reference compound]
antitrypanosomal activity (six trypanosome species): inadequate antitrypanosomal activity
trypanocidal activity (words) (six trypanosome species): no activity
inhibition at 0.25 µg/mL ([1]; Trypanosoma congolense, TcIL3000, 0.25 μg/ml, read-out: Inhibition rate): 0%
inhibition at 25 µg/mL ([1]; Trypanosoma congolense, TcIL3000, 25 μg/ml, read-out: Inhibition rate): 0%
inhibition at 0.25 µg/mL ([2]; Trypanosoma brucei, RHODESIENSE, TbrIL1501, 0.25 μg/ml, read-out: Inhibition rate): 7.17 ± 3.1%
inhibition at 25 µg/mL ([2]; Trypanosoma brucei, RHODESIENSE, TbrIL1501, 25 μg/ml, read-out: Inhibition rate): 0%
inhibition at 0.25 µg/mL ([3]; Trypanosoma brucei, TbbGUTat3.1, 0.25 μg/ml, read-out: Inhibition rate): 0%
inhibition at 25 µg/mL ([3]; Trypanosoma brucei, TbbGUTat3.1, 25 μg/ml, read-out: Inhibition rate): 1.05 ± 0.99%
inhibition at 0.25 µg/mL (T. evansi (Tev) Tansui; 0.25 μg/ml, read-out: Inhibition rate): 7.67 ± 5.9%
inhibition at 25 µg/mL (T. evansi (Tev) Tansui; 25 μg/ml, read-out: Inhibition rate): 0%
inhibition at 0.25 µg/mL ([4]; Trypanosoma brucei, GAMBIENSE, TbgIL1922, 0.25 μg/ml, read-out: Inhibition rate): 1.56 ± 2.2%
inhibition at 25 µg/mL ([4]; Trypanosoma brucei, GAMBIENSE, TbgIL1922, 25 μg/ml, read-out: Inhibition rate): 0%
inhibition at 0.25 µg/mL [5, 6]: 0.015 ± 0.022%
inhibition at 25 µg/mL [5, 6]: 0.97 ± 1.37%
trypanocidal action (Trypanosoma): did not previously show any trypanocidal action
